Measured values as given in patent US9211310B2, “Use of a Chinese medicine composition in preparing medicaments for treating secondary prevention of myocardial infarction” (TASLY PHARMACEUTICAL GROUP CO., LTD, priority 2010, dated 2015).

System: patients after acute myocardial infarction
Assay: Life quality, Seattle Angina Questionnaire (SAQ), same clinical trial
Type: in vivo, human
Conditions: 12 months after treatment
Source text: 3508 patients who were in accordance with the diagnostic standards of AMI for 28 days to 2 years and differentiated as Qi deficiency and blood stagnation syndrome by TCM were studied. 0.5 g Chinese medicine composition prepared by the method of EXAMPLE 1 (Coded as QSYQ) was administrated half an hour after meal, 3 times per day.
There were 19 questions in the Seattle angina questionnaire (SAQ), including 5 parts: physical limitation (PL), anginal stability (AS), anginal frequency (AF), treatment satisfaction (TS) and disease perception (DP). After being given necessary explanation by doctors, the questions were answered independently by patients.
They included the overall survival time, angina pectoris score, TCM symptom score and life quality score, where angina pectoris score, TCM symptom score and life quality score were evaluated at randomization, in 1st, 3rd, 6th, 9th, 12th month after treatment and 18th month after follow-up.
All evaluation results of SAQ were described during the period of observation, and Wilcoxon rank sum test was used for inter-group comparison.
The evaluation results in the SAQ were depicted in different observations, and inter-group comparison was tested by Wilcoxon Rank-sum test.

## CC(=O)Oc1ccccc1C(=O)O [Control group, aspirine]
FAS
  SAQ Question 1-5: Not limited, number of patients: 863
  SAQ Question 1-5: Not limited, percent of patients: (49.51%)
  SAQ Question 1-5: Other reasons, number of patients: 11
  SAQ Question 1-5: Other reasons, percent of patients: (0.63%)
  SAQ Question 1-5: Severely limited, number of patients: 13
  SAQ Question 1-5: Severely limited, percent of patients: (0.75%)
  SAQ Question 1-5: Slightly limited, number of patients: 517
  SAQ Question 1-5: Slightly limited, percent of patients: (29.66%)
  SAQ Question 1-9: Mildly limited, % of cases: (19.60%)
  SAQ Question 1-9: Mildly limited, cases: 336
  SAQ Question 1-9: Moderately limited, % of cases: (20.42%)
  SAQ Question 1-9: Moderately limited, cases: 350
  SAQ Question 1-9: Not limited, % of cases: (4.55%)
  SAQ Question 1-9: Not limited, cases: 78
  SAQ Question 1-9: Other reasons, % of cases: (5.89%)
  SAQ Question 1-9: Other reasons, cases: 101
  SAQ Question 1-9: Severely limited, % of cases: (31.62%)
  SAQ Question 1-9: Severely limited, cases: 542
  SAQ Question 1-9: Slightly limited, % of cases: (17.91%)
  SAQ Question 1-9: Slightly limited, cases: 307
PP
  SAQ 2nd question: Clearly increased, % of cases: (0.14%)
  SAQ 2nd question: Clearly increased, cases: 2
  SAQ 2nd question: Clearly reduced, % of cases: (30.04%)
  SAQ 2nd question: Clearly reduced, cases: 428
  SAQ 2nd question: Same, % of cases: (37.05%)
  SAQ 2nd question: Same, cases: 528
  SAQ 2nd question: Slightly increased, % of cases: (1.96%)
  SAQ 2nd question: Slightly increased, cases: 28
  SAQ 2nd question: Slightly reduced, % of cases: (30.81%)
  SAQ 2nd question: Slightly reduced, cases: 439
  SAQ 3rd question: 1-2 times per week, % of cases: (30.81%)
  SAQ 3rd question: 1-2 times per week, cases: 439
  SAQ 3rd question: 1-3 times per day, % of cases: (1.96%)
  SAQ 3rd question: 1-3 times per day, cases: 28
  SAQ 3rd question: <1 time per week, % of cases: (30.04%)
  SAQ 3rd question: <1 time per week, cases: 428
  SAQ 3rd question: No onset, % of cases: (0.00%)
  SAQ 3rd question: No onset, cases: 0
  SAQ 3rd question: ≧3 times per week, % of cases: (37.05%)
  SAQ 3rd question: ≧3 times per week, cases: 528
  SAQ 3rd question: ≧4 times per day, % of cases: (0.14%)
  SAQ 3rd question: ≧4 times per day, cases: 2
  SAQ Question 1-3: Mildly limited, number of patients: 30
  SAQ Question 1-3: Mildly limited, percent of patients: (2.11%)
  SAQ Question 1-3: Moderately limited, number of patients: 3
  SAQ Question 1-3: Moderately limited, percent of patients: (0.21%)
  SAQ Question 1-3: Not limited, number of patients: 1225
  SAQ Question 1-3: Not limited, percent of patients: (86.03%)
  SAQ Question 1-3: Other reasons, number of patients: 8
  SAQ Question 1-3: Other reasons, percent of patients: (0.56%)
  SAQ Question 1-3: Severely limited, number of patients: 1
  SAQ Question 1-3: Severely limited, percent of patients: (0.07%)
  SAQ Question 1-3: Slightly limited, number of patients: 157
  SAQ Question 1-3: Slightly limited, percent of patients: (11.03%)
  SAQ Question 1-4: Mildly limited, number of patients: 177
  SAQ Question 1-4: Mildly limited, percent of patients: (12.43%)
  SAQ Question 1-4: Moderately limited, number of patients: 41
  SAQ Question 1-4: Moderately limited, percent of patients: (2.88%)
  SAQ Question 1-4: Not limited, number of patients: 724
  SAQ Question 1-4: Not limited, percent of patients: (50.84%)
  SAQ Question 1-4: Other reasons, number of patients: 11
  SAQ Question 1-4: Other reasons, percent of patients: (0.77%)
  SAQ Question 1-4: Severely limited, number of patients: 2
  SAQ Question 1-4: Severely limited, percent of patients: (0.14%)
  SAQ Question 1-4: Slightly limited, number of patients: 469
  SAQ Question 1-4: Slightly limited, percent of patients: (32.94%)
  SAQ Question 1-5: Mildly limited, number of patients: 198
  SAQ Question 1-5: Mildly limited, percent of patients: (13.93%)
  SAQ Question 1-5: Moderately limited, number of patients: 52
  SAQ Question 1-5: Moderately limited, percent of patients: (3.66%)
  SAQ Question 1-5: Not limited, number of patients: 736
  SAQ Question 1-5: Not limited, percent of patients: (51.79%)
  SAQ Question 1-5: Other reasons, number of patients: 10
  SAQ Question 1-5: Other reasons, percent of patients: (0.70%)
  SAQ Question 1-5: Severely limited, number of patients: 3
  SAQ Question 1-5: Severely limited, percent of patients: (0.21%)
  SAQ Question 1-5: Slightly limited, number of patients: 422
